Reference: patent publication US20090124817A1 (The Industry & Academic Cooperation in Chungnam National …, priority 2007, published 2009)

Key:
[1] = Particle size by dynamic light scattering / laser diffraction; type: physicochemical
Experimental: (§1) The particle size and particle size distribution of samples were determined by dynamic light scattering (DLS) using electrophoretic light scattering spectrophotometer (ELS-8000, Otsuka Electronics, Japan) at a fixed angle of 90° and at room temperature. The samples were dispersed in mineral oil (Macrol 52, Exxon Mobil Co., USA) and sonicated before measurement. The particle size and particle size distribution of samples were also determined with a Sympatec laser diffraction analyzer (HELOS/RODOS, Clausthal-Zellerfeld, Germany) consisted of a laser sensor HELOS and a RODOS dry-powder air-dispersion system. The specific surface area was determined using the gas adsorption method. Calculation is based on the BET equation. Surface Area Analyzer ASAP 2010 (Micromeritics Instrument Corporation, USA) was used.

[2] = Specific surface area by gas adsorption (BET); type: physicochemical; details: BET equation
Experimental: as §1

[3] = DLS, dispersed in mineral oil, room temperature

Row | SMILES | Mean particle size [1, 3] | Specific surface area [2] | Mean particle size ([1]; DLS / laser diffraction)
1 | CC(C)c1c(C(=O)Nc2ccccc2)c(-c2ccccc2)c(-c2ccc(F)cc2)n1CC[C@@H](O)C[C@@H](O)CC(=O)[O-].CC(C)c1c(C(=O)Nc2ccccc2)c(-c2ccccc2)c(-c2ccc(F)cc2)n1CC[C@@H](O)C[C@@H](O)CC(=O)[O-].[Ca+2] [Example 18, atorvastatin calcium] | 155 nm | 79.78 m^2/g | 
2 | CC(C)c1c(C(=O)Nc2ccccc2)c(-c2ccccc2)c(-c2ccc(F)cc2)n1CC[C@@H](O)C[C@@H](O)CC(=O)[O-].CC(C)c1c(C(=O)Nc2ccccc2)c(-c2ccccc2)c(-c2ccc(F)cc2)n1CC[C@@H](O)C[C@@H](O)CC(=O)[O-].[Ca+2] [Example 10, atorvastatin calcium] | 727 nm | 30.88 m^2/g | 
3 | CC(C)c1c(C(=O)Nc2ccccc2)c(-c2ccccc2)c(-c2ccc(F)cc2)n1CC[C@@H](O)C[C@@H](O)CC(=O)[O-].CC(C)c1c(C(=O)Nc2ccccc2)c(-c2ccccc2)c(-c2ccc(F)cc2)n1CC[C@@H](O)C[C@@H](O)CC(=O)[O-].[Ca+2] [Example 9, atorvastatin calcium] | 265 nm | 47.82 m^2/g | 
4 | CC(C)c1c(C(=O)Nc2ccccc2)c(-c2ccccc2)c(-c2ccc(F)cc2)n1CC[C@@H](O)C[C@@H](O)CC(=O)[O-].CC(C)c1c(C(=O)Nc2ccccc2)c(-c2ccccc2)c(-c2ccc(F)cc2)n1CC[C@@H](O)C[C@@H](O)CC(=O)[O-].[Ca+2] [Example 2, atorvastatin calcium] | 179 nm | 90.28 m^2/g | 
5 | CC(C)c1c(C(=O)Nc2ccccc2)c(-c2ccccc2)c(-c2ccc(F)cc2)n1CC[C@@H](O)C[C@@H](O)CC(=O)[O-].CC(C)c1c(C(=O)Nc2ccccc2)c(-c2ccccc2)c(-c2ccc(F)cc2)n1CC[C@@H](O)C[C@@H](O)CC(=O)[O-].[Ca+2] [Example 25, atorvastatin calcium] | 65 nm | 120.35 m^2/g | 
6 | CC(C)c1c(C(=O)Nc2ccccc2)c(-c2ccccc2)c(-c2ccc(F)cc2)n1CC[C@@H](O)C[C@@H](O)CC(=O)[O-].CC(C)c1c(C(=O)Nc2ccccc2)c(-c2ccccc2)c(-c2ccc(F)cc2)n1CC[C@@H](O)C[C@@H](O)CC(=O)[O-].[Ca+2] [Comparative Example 1, atorvastatin calcium, reference compound] |  | 0.95 m^2/g | 7.31 μm
7 | CC(C)c1c(C(=O)Nc2ccccc2)c(-c2ccccc2)c(-c2ccc(F)cc2)n1CC[C@@H](O)C[C@@H](O)CC(=O)[O-].CC(C)c1c(C(=O)Nc2ccccc2)c(-c2ccccc2)c(-c2ccc(F)cc2)n1CC[C@@H](O)C[C@@H](O)CC(=O)[O-].[Ca+2] [Starting material, atorvastatin calcium, reference compound] |  | 14.56 m^2/g | 3.87 μm
